Experimental data reported in patent US11382956B2, “Amylin analogues” (Zealand Pharma A/S, priority 2016, dated 2022).
Numbered stars: 1 amine (or outer) side, 2 acyl side, 3 side chain; on linkers, the order of the positions; unused ones are H or OH. Bridge positions count the residues as written; N and C are the ends. Square brackets hold non-standard residues; d marks the D form. Peptide text beside a SMILES is read from it. * marks the point of attachment. C20 diacid = O=C(O)CCCCCCCCCCCCCCCCCCC(=O)*; γGlu = O=C(O)[C@H](CCC(=O)[*:2])N[*:1]; Hyp = O=C(O)[C@@H]1C[C@@H](O)CN1; NMeI = CC[C@H](C)[C@H](NC)C(=O)O; Aad = N[C@@H](CCCC(=O)O)C(=O)O; Orn = NCCC[C@H](N)C(=O)O; Sar = CNCC(=O)O

Experiments:
[1] = target: T1, recombinant human calcitonin receptor (hCT-R) (Homo sapiens, UniProt P30988); test: hCT-R cAMP assay (AlphaScreen) in 1321N1 cells; assay type: cell-based; settings: cAMP formation, 45 min stimulation
T1 construct: host or cells: human astrocytoma cell line 1321N1
T1 sequence (P30988 25-474): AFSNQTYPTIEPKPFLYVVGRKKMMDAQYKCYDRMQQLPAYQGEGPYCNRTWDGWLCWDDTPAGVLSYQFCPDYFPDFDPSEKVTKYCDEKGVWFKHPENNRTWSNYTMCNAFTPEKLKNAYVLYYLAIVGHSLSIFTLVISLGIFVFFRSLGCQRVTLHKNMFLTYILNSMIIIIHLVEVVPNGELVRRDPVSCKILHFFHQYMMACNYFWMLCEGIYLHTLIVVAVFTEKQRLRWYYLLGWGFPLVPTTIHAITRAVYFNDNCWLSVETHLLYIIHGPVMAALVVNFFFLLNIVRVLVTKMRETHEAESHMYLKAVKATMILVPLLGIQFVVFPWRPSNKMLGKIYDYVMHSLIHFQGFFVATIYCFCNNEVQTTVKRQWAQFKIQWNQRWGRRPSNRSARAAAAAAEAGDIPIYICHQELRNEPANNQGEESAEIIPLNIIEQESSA
From the text: (§1) For the assessment of the in vitro activity of test peptides, cell lines expressing recombinant human calcitonin receptor (hCT-R) or recombinant human amylin 3 receptor (hAMYR3) in the background of the human astrocytoma cell line 1321N1 were purchased from DiscoveRx Corporation (Cat. No. 95-016106 and 95-0166C6). The hAMYR3 is a hetero-oligomer of the calcitonin receptor (Isoform 2; Gene ID 799) and RAMPS (Gene ID 10268) that forms when both genes are expressed in the same cell. The hCT-R cell line expresses only the recombinant human calcitonin receptor gene (Isoform 2; Gene ID 799). Upon activation of hCT-R or hAMYR3 by the test peptides the formation of cAMP is induced and was measured using the AlphaScreen® cAMP Assay kit from Perkin-Elmer (Cat. No. 6760635R).
(§2) Briefly, 1321N1 cells expressing hCT-R or hAMYR3 were seeded in 384-well microtiter plates (Falcon Optilux White, Cat.-No. 10448642) at 5,000 cells in […] growth medium per well (AssayComplete 1321N1 Cell Culture Kit, DiscoveRx Corp.), and incubated for 24 h at 37° C., 5% CO2. On the day of analysis growth medium was removed and the cells were stimulated by adding 10 μL of stimulation buffer (10 […], 0.1% BSA) containing increasing concentrations of test peptides, and incubation for 45 min at room temperature. The stimulation was stopped by adding 5.6 μL/well donor bead detection mix (5 mM Hepes pH7.4, 0.5% TWEEN 20, 0.1% BSA, 0.05 mg/mL donor beads, 62.5 nM biotinylated cAMP) and 4.5 μL/well acceptor bead solution (5 mM Hepes pH7.4, 0.5% TWEEN 20, 0.1% BSA, 0.05 mg/mL acceptor beads). After thorough mixing the plates were incubated in the dark for 1 h at room temperature and the cAMP content of the resulting cell lysates was estimated according to the AlphaScreen® cAMP Assay manufacturer's instructions. EC50 values were estimated by computer-aided curve fitting of results of at least 7 different compound concentrations.

[2] = target: T2, recombinant human amylin 3 receptor (hAMYR3) (Homo sapiens, UniProt O60896+P30988); test: hAMYR3 cAMP assay (AlphaScreen) in 1321N1 cells; assay type: cell-based; settings: cAMP formation, 45 min stimulation
T2 construct: host or cells: human astrocytoma cell line 1321N1
T2 sequence (P30988 25-474): T1 sequence (P30988 25-474)
T2 sequence (O60896 24-148 partner): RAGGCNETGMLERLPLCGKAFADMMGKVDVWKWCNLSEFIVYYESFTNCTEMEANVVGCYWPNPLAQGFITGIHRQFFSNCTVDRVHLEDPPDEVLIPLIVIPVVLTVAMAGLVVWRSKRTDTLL
From the text: as §1, §2

| SMILES | EC50 [1] | EC50 [2] |
| --- | --- | --- |
| CC[C@H](C)[C@@H](C(=O)N[C@@H](CC(C)C)C(=O)N[C@@H](CO)C(=O)N[C@@H](CO)C(=O)N[C@H](C(=O)N[C@@H](CCC(=O)O)C(=O)N[C@H](C(=O)NCC(=O)N[C@@H](CO)C(=O)N[C@@H](CC(N)=O)C(=O)N[C@H](C(=O)N1CCC[C@H]1C(N)=O)[C@@H](C)O)C(C)C)[C@@H](C)O)N(C)C(=O)[C@H](C)NC(=O)CN(C)C(=O)[C@H](Cc1ccccc1)NC(=O)[C@H](CO)NC(=O)[C@H](CO)NC(=O)[C@H](CCCNC(=N)N)NC(=O)[C@H](Cc1c[nH]cn1)NC(=O)[C@H](CC(C)C)NC(=O)[C@H](Cc1ccccc1)NC(=O)[C@H](Cc1c[nH]cn1)NC(=O)[C@H](C)NC(=O)[C@H](CC(C)C)NC(=O)[C@H](CCCNC(=N)N)NC(=O)[C@H](CCC(=O)O)NC(=O)[C@@H](NC(=O)[C@H](C)NC(=O)[C@@H]1CCCNC(=O)C[C@H](NC(=O)[C@H](CCCNC(=N)N)NC(=O)CC[C@H](NC(=O)CCCCCCCCCCCCCCCCCCC(=O)O)C(=O)O)C(=O)NCC(=O)N[C@@H]([C@@H](C)O)C(=O)N[C@@H](C)C(=O)N[C@@H]([C@@H](C)O)C(=O)N1)[C@@H](C)O [Compound 7, [19CD]-isoGlu-RD()GTAT-Orn()-ATERLAHFLHRSSF-Gly(Me)-A-Ile(Me)-LSSTEVGSNTP-NH2] ({C20 diacid-γGlu}-RDGTAT[Orn]ATERLAHFLHRSSF[Sar]A[NMeI]LSSTEVGSNTP-NH2; lactam 2-7) | 0.289 nM | 0.032 nM |
| CC[C@H](C)[C@@H](C(=O)N1CCC[C@H]1C(=O)N[C@@H](CO)C(=O)N[C@@H](CO)C(=O)N[C@H](C(=O)N[C@@H](CCC(=O)O)C(=O)N[C@H](C(=O)NCC(=O)N[C@@H](CO)C(=O)N[C@@H](CC(N)=O)C(=O)N[C@H](C(=O)N1C[C@H](O)C[C@H]1C(N)=O)[C@@H](C)O)C(C)C)[C@@H](C)O)N(C)C(=O)[C@H](C)NC(=O)CN(C)C(=O)[C@H](Cc1ccccc1)NC(=O)[C@H](CO)NC(=O)[C@H](CO)NC(=O)[C@H](CCCNC(=N)N)NC(=O)[C@H](CCC(N)=O)NC(=O)[C@H](CC(C)C)NC(=O)[C@H](Cc1ccccc1)NC(=O)[C@H](Cc1c[nH]cn1)NC(=O)[C@H](C)NC(=O)[C@H](CC(C)C)NC(=O)[C@H](CCCNC(=N)N)NC(=O)[C@H](CCC(N)=O)NC(=O)[C@@H](NC(=O)[C@H](C)NC(=O)[C@@H]1CCCNC(=O)C[C@H](NC(=O)[C@H](CCCNC(=N)N)NC(=O)CC[C@H](NC(=O)CCCCCCCCCCCCCCCCCCC(=O)O)C(=O)O)C(=O)NCC(=O)N[C@@H]([C@@H](C)O)C(=O)N[C@@H](C)C(=O)N[C@@H]([C@@H](C)O)C(=O)N1)[C@@H](C)O [Compound 9, [19CD]-isoGlu-RD()GTAT-Orn()-ATQRLAHFLQRSSF-Gly(Me)-A-Ile(Me)-PSSTEVGSNT-Hyp-NH2] ({C20 diacid-γGlu}-RDGTAT[Orn]ATQRLAHFLQRSSF[Sar]A[NMeI]PSSTEVGSNT[Hyp]-NH2; lactam 2-7) | 0.027 nM | 0.013 nM |
| CC[C@H](C)[C@@H](C(=O)N[C@@H](CC(C)C)C(=O)N[C@@H](CO)C(=O)N[C@@H](CO)C(=O)N[C@H](C(=O)N[C@@H](CCC(=O)O)C(=O)N[C@H](C(=O)NCC(=O)N[C@@H](CO)C(=O)N[C@@H](CC(N)=O)C(=O)N[C@H](C(=O)N1C[C@H](O)C[C@H]1C(N)=O)[C@@H](C)O)C(C)C)[C@@H](C)O)N(C)C(=O)[C@H](C)NC(=O)CN(C)C(=O)[C@H](Cc1ccccc1)NC(=O)[C@H](CO)NC(=O)[C@H](CO)NC(=O)[C@H](CCCNC(=N)N)NC(=O)[C@H](CCC(N)=O)NC(=O)[C@H](CC(C)C)NC(=O)[C@H](Cc1ccccc1)NC(=O)[C@H](Cc1c[nH]cn1)NC(=O)[C@H](C)NC(=O)[C@H](CC(C)C)NC(=O)[C@H](CCCNC(=N)N)NC(=O)[C@H](CCC(=O)O)NC(=O)[C@@H](NC(=O)[C@H](C)NC(=O)[C@@H]1CCCCNC(=O)C[C@H](NC(=O)[C@H](CCCNC(=N)N)NC(=O)CC[C@H](NC(=O)CCCCCCCCCCCCCCCCCCC(=O)O)C(=O)O)C(=O)NCC(=O)N[C@@H](CCC(=O)O)C(=O)N[C@@H](C)C(=O)N[C@@H]([C@@H](C)O)C(=O)N1)[C@@H](C)O [Compound 12, [19CD]-isoGlu-RD()GEATK()ATERLAHFLQRSSF-Gly(Me)-A-Ile(Me)-LSSTEVGSNT-Hyp-NH2] ({C20 diacid-γGlu}-RDGEATKATERLAHFLQRSSF[Sar]A[NMeI]LSSTEVGSNT[Hyp]-NH2; lactam 2-7) | 0.893 nM | 0.999 nM |
| CC[C@H](C)[C@@H](C(=O)N[C@@H](CC(C)C)C(=O)N[C@@H](CO)C(=O)N[C@@H](CO)C(=O)N[C@H](C(=O)N[C@@H](CCC(=O)O)C(=O)N[C@H](C(=O)NCC(=O)N[C@@H](CO)C(=O)N[C@@H](CC(N)=O)C(=O)N[C@H](C(=O)N1C[C@H](O)C[C@H]1C(N)=O)[C@@H](C)O)C(C)C)[C@@H](C)O)N(C)C(=O)[C@H](C)NC(=O)CN(C)C(=O)[C@H](Cc1ccccc1)NC(=O)[C@H](CO)NC(=O)[C@H](CO)NC(=O)[C@H](CCCNC(=N)N)NC(=O)[C@H](CCC(N)=O)NC(=O)[C@H](CC(C)C)NC(=O)[C@H](Cc1ccccc1)NC(=O)[C@H](Cc1c[nH]cn1)NC(=O)[C@H](C)NC(=O)[C@H](CC(C)C)NC(=O)[C@H](CCCNC(=N)N)NC(=O)[C@H](CCC(=O)O)NC(=O)[C@@H](NC(=O)[C@H](C)NC(=O)[C@@H]1CCCCNC(=O)C[C@H](NC(=O)[C@H](CCCNC(=N)N)NC(=O)CC[C@H](NC(=O)CCCCCCCCCCCCCCCCCCC(=O)O)C(=O)O)C(=O)NCC(=O)N[C@@H]([C@@H](C)O)C(=O)N[C@@H](CC(C)C)C(=O)N[C@@H]([C@@H](C)O)C(=O)N1)[C@@H](C)O [Compound 13, [19CD]-isoGlu-RD()GTLTK()ATERLAHFLQRSSF-Gly(Me)-A-Ile(Me)-LSSTEVGSNT-Hyp-NH2] ({C20 diacid-γGlu}-RDGTLTKATERLAHFLQRSSF[Sar]A[NMeI]LSSTEVGSNT[Hyp]-NH2; lactam 2-7) | 1.41 nM | 0.456 nM |
| CC[C@H](C)[C@@H](C(=O)N[C@@H](CC(C)C)C(=O)N[C@@H](CO)C(=O)N[C@@H](CO)C(=O)N[C@H](C(=O)N[C@@H](CCC(=O)O)C(=O)N[C@H](C(=O)NCC(=O)N[C@@H](CO)C(=O)N[C@@H](CO)C(=O)N[C@H](C(=O)N1C[C@H](O)C[C@H]1C(N)=O)[C@@H](C)O)C(C)C)[C@@H](C)O)N(C)C(=O)[C@H](C)NC(=O)CN(C)C(=O)[C@H](Cc1ccccc1)NC(=O)[C@H](CO)NC(=O)[C@H](CO)NC(=O)[C@H](CCCNC(=N)N)NC(=O)[C@@H](NC(=O)[C@H](CC(C)C)NC(=O)[C@H](Cc1ccccc1)NC(=O)[C@H](CCCC(=O)O)NC(=O)[C@H](C)NC(=O)[C@H](CC(C)C)NC(=O)[C@H](CCCNC(=N)N)NC(=O)[C@H](CCC(=O)O)NC(=O)[C@@H](NC(=O)[C@H](C)NC(=O)[C@@H]1CCCNC(=O)C[C@H](NC(=O)[C@H](CCCNC(=N)N)NC(=O)CC[C@H](NC(=O)CCCCCCCCCCCCCCCCCCC(=O)O)C(=O)O)C(=O)NCC(=O)N[C@@H]([C@@H](C)O)C(=O)N[C@@H](C)C(=O)N[C@@H]([C@@H](C)O)C(=O)N1)[C@@H](C)O)[C@@H](C)O [Compound 22, [19CD]-isoGlu-RD()GTAT-Orn()-ATERLA-Aad-FLTRSSF-Gly(Me)-A-Ile(Me)-LSSTEVGSST-Hyp-NH2] ({C20 diacid-γGlu}-RDGTAT[Orn]ATERLA[Aad]FLTRSSF[Sar]A[NMeI]LSSTEVGSST[Hyp]-NH2; lactam 2-7) | 0.474 nM | 0.051 nM |
